Laboratory results reported in patent US11547681B2, “N-acylethanolamide derivatives and uses thereof” (ELIEM THERAPEUTICS, INC., priority 2016, dated 2023).

Experiment: in vitro
Conditions: for Measured concentration of analyte PEA, 0 min / Measured concentration of analyte PEA, 10 min / Measured concentration of analyte PEA, 20 min / Measured concentration of analyte PEA, 30 min / Measured concentration of analyte PEA, 60 min / % Remaining of Initial, 0 min / % Remaining of Initial, 10 min / % Remaining of Initial, 20 min / % Remaining of Initial, 30 min / % Remaining of Initial, 60 min / Measured concentration of PEA (analyte) / % Remaining of Initial / Concentration of analyte I-9 / Concentration of analyte PEA / % Remaining of Initial (n = 1): 1 μM; for % Remaining of Initial, 0 min / % Remaining of Initial, 10 min / % Remaining of Initial, 20 min / % Remaining of Initial, 30 min / % Remaining of Initial, 60 min / microsomal CLint at 1 μM / half-life at 1 μM / % Remaining of Initial / % Remaining of Initial (n = 1): microsomes
Experimental: The reaction mixture, minus cofactors, was prepared as described below. The test article was added into the reaction mixture at a final concentration of 1 μM. […] An aliquot of the reaction mixture (without cofactor) was equilibrated in a shaking water bath at 37° C. for 3 minutes. The reaction was initiated by the addition of cofactor, and the mixture was incubated in a shaking water bath at 37° C. Aliquots (100 μL) were withdrawn at 0, 10, 20, 30, and 60 minutes. All samples were immediately combined with 400 μL of ice-cold 50/50 acetonitrile/H2O containing 0.1% formic acid and internal standard to terminate the reaction. The samples were then mixed and centrifuged to precipitate proteins. Calibration standards were prepared in matched matrix. All samples and standards were assayed by LC-MS/MS using electrospray ionization for both the dosed prodrug I-9 and the expected drug (PEA). Analytical conditions are outlined in Appendix 4-1. The test article concentration at each time point was compared to the test article concentration at time 0 to determine the percent remaining at each time point. Half-lives were calculated using GraphPad software, fitting to a single-phase exponential decay equation.
Reaction mixture, minus cofactors, was prepared as described below. Test article was added into the reaction mixture at a final concentration of 1 μM. […] An aliquot of the reaction mixture (without cofactor) was equilibrated in a shaking water bath at 37° C. for 3 minutes. The reaction was initiated by the addition of cofactor, and the mixture was incubated in a shaking water bath at 37° C. Aliquots (100 μL) were withdrawn at 0, 10, 20, 30, and 60 minutes. Test article samples were immediately combined with 300 μL of ice-cold acetonitrile containing 1% formic acid. Control samples were immediately combined with 400 μL of ice-cold 50/50 acetonitrile (ACN)/dH2O containing 0.1% formic acid and internal standard to terminate the reaction. Samples were then mixed and centrifuged to precipitate proteins. Calibration standards were prepared in matched matrix. Samples and standards were assayed by LC-MS/MS using electrospray ionization for both dosed prodrug and expected drug (PEA). Analytical conditions are outlined in Appendix 8-1. Test article concentration at each time point was compared to test article concentration at time 0 to determine the percent remaining at each time point. Half-lives were calculated using GraphPad software, fitting to a single-phase exponential decay equation.
Reaction mixture, minus cofactors, was prepared as described below. Test article was added into the reaction mixture at a final concentration of 1 μM. […] An aliquot of the reaction mixture (without cofactor) was equilibrated in a shaking water bath at 37° C. for 5 minutes. Reaction was initiated by the addition of cofactor, and the mixture was incubated in a shaking water bath at 37° C. Aliquots (100 μL) were withdrawn at 0, 10, 20, 30, and 60 minutes. Test article samples were immediately combined with 300 μL of ice-cold acetonitrile containing 1% formic acid. Control samples were immediately combined with 400 μL of ice-cold 50/50 acetonitrile (ACN)/dH2O containing 0.1% formic acid and internal standard to terminate the reaction. Samples were then mixed and centrifuged to precipitate proteins. Calibration standards were prepared in matched matrix. Samples and standards were assayed by LC-MS/MS using electrospray ionization for both the dosed prodrug and the expected drug (PEA). Analytical conditions are outlined in Appendix 10-1. Test article concentration at each time point was compared to the test article concentration at time 0 to determine the percent remaining at each time point. Half-lives were calculated using GraphPad software, fitting to a single-phase exponential decay equation.
Reaction mixture, minus cofactors, was prepared as described below. Test article was added into the reaction mixture at a final concentration of 1 μM.

[1] = male, Sprague-Dawley, rat, 0 min
[2] = male, Sprague-Dawley, rat, 10 min
[3] = male, Sprague-Dawley, rat, 20 min
[4] = male, Sprague-Dawley, rat, 30 min
[5] = male, Sprague-Dawley, rat, 60 min
[6] = male, Sprague-Dawley, rat, 0.5 h
[7] = male, Sprague-Dawley, rat, Half-life
[8] = both, human, calculated value in parentheses
[9] = both, human, Half-life, calculated value in parentheses
[10] = male, Sprague-Dawley, rat, calculated value in parentheses
[11] = male, Sprague-Dawley, rat, Half-life, calculated value in parentheses

## CCCCCCCCCCCCCCCC(=O)NCCOC(=O)CCC(=O)OC[C@H]1O[C@@](CO)(O[C@H]2O[C@H](CO)[C@@H](O)[C@H](O)[C@H]2O)[C@@H](O)[C@@H]1O [Compound I-7]
both, human, 0 min
  Measured concentration of analyte PEA, 0 min: 0.22 µM
both, human, 10 min
  Measured concentration of analyte PEA, 10 min: 0.39 µM
  % Remaining of Initial, 10 min: 4.6%
both, human, 20 min
  Measured concentration of analyte PEA, 20 min: 0.28 µM
  % Remaining of Initial, 20 min: 1.3%
both, human, 30 min
  Measured concentration of analyte PEA, 30 min: 0.22 µM
both, human, 60 min
  Measured concentration of analyte PEA, 60 min: 0.080 µM
both, human, 0 h
  % Remaining of Initial, 0 min: 100%
both, human, 0.5 h
  % Remaining of Initial, 30 min: <1.0%
both, human, 1 h
  % Remaining of Initial, 60 min: <1.0%
both, human
  microsomal CLint at 1 μM: 612 µL/min/mg
both, human, Half-life
  half-life at 1 μM: 2.3 min
[1]
  Measured concentration of analyte PEA, 0 min: 0.054 µM
[2]
  Measured concentration of analyte PEA, 10 min: 0.14 µM
  % Remaining of Initial, 10 min: 45%
[3]
  Measured concentration of analyte PEA, 20 min: 0.087 µM
  % Remaining of Initial, 20 min: 17%
[4]
  Measured concentration of analyte PEA, 30 min: 0.045 µM
[5]
  Measured concentration of analyte PEA, 60 min: 0.0085 µM
male, Sprague-Dawley, rat, 0 h
  % Remaining of Initial, 0 min: 100%
[6]
  % Remaining of Initial, 30 min: 11%
male, Sprague-Dawley, rat, 1 h
  % Remaining of Initial, 60 min: 2.1%
male, Sprague-Dawley, rat
  microsomal CLint at 1 μM: 164 µL/min/mg
[7]
  half-life at 1 μM: 8.5 min

## CCCCCCCCCCCCCCCC(=O)NCCOC(=O)CCC(=O)OC(CO)CO [Compound I-8]
both, human, 0 min
  Measured concentration of PEA (analyte): 0.063 µM
both, human, 10 min
  Measured concentration of PEA (analyte): 0.34 µM
  % Remaining of Initial: 2.8%
both, human, 20 min
  Measured concentration of PEA (analyte): 0.25 µM
  % Remaining of Initial: <1.0%
both, human, 30 min
  Measured concentration of PEA (analyte): 0.21 µM
both, human, 60 min
  Measured concentration of PEA (analyte): 0.070 µM
both, human, 0 h
  % Remaining of Initial: 100%
both, human, 0.5 h
  % Remaining of Initial: <1.0%
both, human, 1 h
  % Remaining of Initial: <1.0%
both, human
  microsomal CLint at 1 μM: > 139 µL/min/mg
[8]
  microsomal CLint at 1 μM: 712 µL/min/mg
both, human, Half-life
  half-life at 1 μM: < 10 min
[9]
  half-life at 1 μM: 2 min
[1]
  Measured concentration of PEA (analyte): 0.033 µM
[2]
  Measured concentration of PEA (analyte): 0.041 µM
  % Remaining of Initial: 4.3%
[3]
  Measured concentration of PEA (analyte): 0.019 µM
  % Remaining of Initial: 1.2%
[4]
  Measured concentration of PEA (analyte): 0 µM
[5]
  Measured concentration of PEA (analyte): 0 µM
male, Sprague-Dawley, rat, 0 h
  % Remaining of Initial: 100%
[6]
  % Remaining of Initial: <1.0%
male, Sprague-Dawley, rat, 1 h
  % Remaining of Initial: <1.0%
male, Sprague-Dawley, rat
  microsomal CLint at 1 μM: > 139 µL/min/mg
[10]
  microsomal CLint at 1 μM: 624 µL/min/mg
[7]
  half-life at 1 μM: < 10 min
[11]
  half-life at 1 μM: 2.2 min

## CCCCCCCCCCCCCCCC(=O)NCCOC(=O)CCC(=O)OCC(O)CO (centres unmarked) [Compound I-9]
both, human, 0 min
  Concentration of analyte I-9: 180 nM
  Concentration of analyte PEA: 830 nM
  Measured concentration of analyte PEA, 0 min: 0.47 µM
both, human, 10 min
  Concentration of analyte I-9: 2.1 nM
  Concentration of analyte PEA: 600 nM
  Measured concentration of analyte PEA, 10 min: 0.39 µM
  % Remaining of Initial (n = 1): 1.2%
  % Remaining of Initial, 10 min: <1.0%
both, human, 20 min
  Concentration of analyte I-9: 0 nM
  Concentration of analyte PEA: 510 nM
  Measured concentration of analyte PEA, 20 min: 0.22 µM
  % Remaining of Initial (n = 1): <1.0%
  % Remaining of Initial, 20 min: <1.0%
both, human, 30 min
  Concentration of analyte I-9: 0 nM
  Concentration of analyte PEA: 410 nM
  Measured concentration of analyte PEA, 30 min: 0.16 µM
both, human, 60 min
  Concentration of analyte I-9: 0 nM
  Concentration of analyte PEA: 200 nM
  Measured concentration of analyte PEA, 60 min: 0.058 µM
both, human, 0 h
  % Remaining of Initial (n = 1): 100%
  % Remaining of Initial, 0 min: 100%
both, human, 0.5 h
  % Remaining of Initial (n = 1): <1.0%
  % Remaining of Initial, 30 min: <1.0%
both, human, 1 h
  % Remaining of Initial (n = 1): <1.0%
  % Remaining of Initial, 60 min: <1.0%
[8]
  microsomal CLint at 1 μM: 888 µL/min/mg
both, human, Half-Life
  half-life at 1 μM: < 10 min
both, human, Half-life
  half-life at 1 μM: < 1 min
[9]
  half-life at 1 μM: 1.6 min
[1]
  Concentration of analyte I-9: 210 nM
  Concentration of analyte PEA: 350 nM
  Measured concentration of analyte PEA, 0 min: 0.22 µM
[2]
  Concentration of analyte I-9: 8.5 nM
  Concentration of analyte PEA: 160 nM
  Measured concentration of analyte PEA, 10 min: 0.066 µM
  % Remaining of Initial (n = 1): 4.0%
  % Remaining of Initial, 10 min: 1.9%
[3]
  Concentration of analyte I-9: 0 nM
  Concentration of analyte PEA: 76 nM
  Measured concentration of analyte PEA, 20 min: 0.017 µM
  % Remaining of Initial (n = 1): <1.0%
  % Remaining of Initial, 20 min: <1.0%
[4]
  Concentration of analyte I-9: 0 nM
  Concentration of analyte PEA: 27 nM
  Measured concentration of analyte PEA, 30 min: 0 µM
[5]
  Concentration of analyte I-9: 0 nM
  Concentration of analyte PEA: 3 nM
  Measured concentration of analyte PEA, 60 min: 0 µM
male, Sprague-Dawley, rat, 0 h
  % Remaining of Initial (n = 1): 100%
  % Remaining of Initial, 0 min: 100%
[6]
  % Remaining of Initial (n = 1): <1.0%
  % Remaining of Initial, 30 min: <1.0%
male, Sprague-Dawley, rat, 1 h
  % Remaining of Initial (n = 1): <1.0%
  % Remaining of Initial, 60 min: <1.0%
[10]
  microsomal CLint at 1 μM: 642 µL/min/mg
male, Sprague-Dawley, rat, Half-Life
  half-life at 1 μM: < 10 min
[7]
  half-life at 1 μM: 1.8 min
[11]
  half-life at 1 μM: 2.2 min
